Source: PMC5622171 (Nature Communications, 2017)

What was measured:
Test in all cases: KINOMEscan kinase profiling
Assay type in all cases: binding
ROCK1 = biological target: T1, ROCK1 (Homo sapiens, UniProt Q13464); settings: read-out: %Inhibition by 10 μM SPA70
T1 construct: purchased DiscoverX (Ambit Biosciences) KINOMEscan
How it was run: (§1)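 KINOMEscan profiling followed a published protocol. Kinases whose inhibition exceeded a set cut-off were then tested in a dilution series beginning at 30 µM.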

DRAK2 = biological target: T2, DRAK2 (Homo sapiens, UniProt O94768); settings: read-out: %Inhibition by 10 μM SPA70
T2 construct: purchased DiscoverX (Ambit Biosciences) KINOMEscan
How it was run: as §1

CDK4-cyclinD3 = biological target: T3, CDK4-cyclinD3 (Homo sapiens, UniProt P11802); settings: read-out: %Inhibition by 10 μM SPA70
T3 construct: purchased DiscoverX (Ambit Biosciences) KINOMEscan
How it was run: as §1

LIMK2 = biological target: T4, LIMK2 (Homo sapiens, UniProt P53671); settings: read-out: %Inhibition by 10 μM SPA70
T4 construct: purchased DiscoverX (Ambit Biosciences) KINOMEscan
How it was run: as §1

PIK3C2G = biological target: T5, PIK3C2G (Homo sapiens, UniProt O75747); settings: read-out: %Inhibition by 10 μM SPA70
T5 construct: purchased DiscoverX (Ambit Biosciences) KINOMEscan
How it was run: as §1

MTOR = biological target: T6, MTOR (Homo sapiens, UniProt P42345); settings: read-out: %Inhibition by 10 μM SPA70
T6 construct: purchased DiscoverX (Ambit Biosciences) KINOMEscan
How it was run: as §1

PRKG1 = biological target: T7, PRKG1 (Homo sapiens, UniProt Q13976); settings: read-out: %Inhibition by 10 μM SPA70
T7 construct: purchased DiscoverX (Ambit Biosciences) KINOMEscan
How it was run: as §1

ERK2 = biological target: T8, ERK2 (Homo sapiens, UniProt P28482); settings: read-out: %Inhibition by 10 μM SPA70
T8 construct: purchased DiscoverX (Ambit Biosciences) KINOMEscan
How it was run: as §1

INSR = biological target: T9, INSR (Homo sapiens, UniProt P06213); settings: read-out: %Inhibition by 10 μM SPA70
T9 construct: purchased DiscoverX (Ambit Biosciences) KINOMEscan
How it was run: as §1

TNK2 = biological target: T10, TNK2 (Homo sapiens, UniProt Q07912); settings: read-out: %Inhibition by 10 μM SPA70
T10 construct: purchased DiscoverX (Ambit Biosciences) KINOMEscan
How it was run: as §1

FGFR3 = biological target: T11, FGFR3 (Homo sapiens, UniProt P22607); settings: read-out: %Inhibition by 10 μM SPA70
T11 construct: purchased DiscoverX (Ambit Biosciences) KINOMEscan
How it was run: as §1

CHEK2 = biological target: T12, CHEK2 (Homo sapiens, UniProt O96017); settings: read-out: %Inhibition by 10 μM SPA70
T12 construct: purchased DiscoverX (Ambit Biosciences) KINOMEscan
How it was run: as §1

SBK1 = biological target: T13, SBK1 (Homo sapiens, UniProt Q52WX2); settings: read-out: %Inhibition by 10 μM SPA70
T13 construct: purchased DiscoverX (Ambit Biosciences) KINOMEscan
How it was run: as §1

FAK = biological target: T14, FAK (Homo sapiens, UniProt Q05397); settings: read-out: %Inhibition by 10 μM SPA70
T14 construct: purchased DiscoverX (Ambit Biosciences) KINOMEscan
How it was run: as §1

MYLK = biological target: T15, MYLK (Homo sapiens, UniProt Q15746); settings: read-out: %Inhibition by 10 μM SPA70
T15 construct: purchased DiscoverX (Ambit Biosciences) KINOMEscan
How it was run: as §1

TRKB = biological target: T16, TRKB (Homo sapiens, UniProt Q16620); settings: read-out: %Inhibition by 10 μM SPA70
T16 construct: purchased DiscoverX (Ambit Biosciences) KINOMEscan
How it was run: as §1

MAP3K15 = biological target: T17, MAP3K15 (Homo sapiens, UniProt Q6ZN16); settings: read-out: %Inhibition by 10 μM SPA70
T17 construct: purchased DiscoverX (Ambit Biosciences) KINOMEscan
How it was run: as §1

ALK = biological target: T18, ALK (Homo sapiens, UniProt Q9UM73); settings: read-out: %Inhibition by 10 μM SPA70
T18 construct: purchased DiscoverX (Ambit Biosciences) KINOMEscan
How it was run: as §1

CLK1 = biological target: T19, CLK1 (Homo sapiens, UniProt P49759); settings: read-out: %Inhibition by 10 μM SPA70
T19 construct: purchased DiscoverX (Ambit Biosciences) KINOMEscan
How it was run: as §1

FRK = biological target: T20, FRK (Homo sapiens, UniProt P42685); settings: read-out: %Inhibition by 10 μM SPA70
T20 construct: purchased DiscoverX (Ambit Biosciences) KINOMEscan
How it was run: as §1

CAMK1G = biological target: T21, CAMK1G (Homo sapiens, UniProt Q96NX5); settings: read-out: %Inhibition by 10 μM SPA70
T21 construct: purchased DiscoverX (Ambit Biosciences) KINOMEscan
How it was run: as §1

MEK3 = biological target: T22, MEK3 (Homo sapiens, UniProt P46734); settings: read-out: %Inhibition by 10 μM SPA70
T22 construct: purchased DiscoverX (Ambit Biosciences) KINOMEscan
How it was run: as §1

MLK3 = biological target: T23, MLK3 (Homo sapiens, UniProt Q16584)
T23 construct: purchased DiscoverX (Ambit Biosciences) KINOMEscan
How it was run: as §1

OSR1 = biological target: T24, OSR1 (Homo sapiens, UniProt O95747); settings: read-out: %Inhibition by 10 μM SPA70
T24 construct: purchased DiscoverX (Ambit Biosciences) KINOMEscan
How it was run: as §1

MST1 = biological target: T25, MST1 (Homo sapiens, UniProt Q13043)
T25 construct: purchased DiscoverX (Ambit Biosciences) KINOMEscan
How it was run: as §1

MLCK = biological target: T26, MLCK (Homo sapiens, UniProt Q32MK0); settings: read-out: %Inhibition by 10 μM SPA70
T26 construct: purchased DiscoverX (Ambit Biosciences) KINOMEscan
How it was run: as §1

PIK4CB = biological target: T27, PIK4CB (Homo sapiens, UniProt Q9UBF8); settings: read-out: %Inhibition by 10 μM SPA70
T27 construct: purchased DiscoverX (Ambit Biosciences) KINOMEscan
How it was run: as §1

ARK5 = biological target: T28, ARK5 (Homo sapiens, UniProt O60285)
T28 construct: purchased DiscoverX (Ambit Biosciences) KINOMEscan
How it was run: as §1

MYO3B = biological target: T29, MYO3B (Homo sapiens, UniProt Q8WXR4); settings: read-out: %Inhibition by 10 μM SPA70
T29 construct: purchased DiscoverX (Ambit Biosciences) KINOMEscan
How it was run: as §1

[1] = biological target: T30, TYK2(JH2domain-pseudokinase) (Homo sapiens, UniProt P29597)
T30 construct: TYK2(JH2domain-pseudokinase); purchased DiscoverX (Ambit Biosciences) KINOMEscan
How it was run: as §1

PDPK1 = biological target: T31, PDPK1 (Homo sapiens, UniProt O15530); settings: read-out: %Inhibition by 10 μM SPA70
T31 construct: purchased DiscoverX (Ambit Biosciences) KINOMEscan
How it was run: as §1

RIPK1 = biological target: T32, RIPK1 (Homo sapiens, UniProt Q13546); settings: read-out: %Inhibition by 10 μM SPA70
T32 construct: purchased DiscoverX (Ambit Biosciences) KINOMEscan
How it was run: as §1

LATS1 = biological target: T33, LATS1 (Homo sapiens, UniProt O95835); settings: read-out: %Inhibition by 10 μM SPA70
T33 construct: purchased DiscoverX (Ambit Biosciences) KINOMEscan
How it was run: as §1

TNK1 = biological target: T34, TNK1 (Homo sapiens, UniProt Q13470); settings: read-out: %Inhibition by 10 μM SPA70
T34 construct: purchased DiscoverX (Ambit Biosciences) KINOMEscan
How it was run: as §1

MAP3K3 = biological target: T35, MAP3K3 (Homo sapiens, UniProt Q99759); settings: read-out: %Inhibition by 10 μM SPA70
T35 construct: purchased DiscoverX (Ambit Biosciences) KINOMEscan
How it was run: as §1

PRKCE = biological target: T36, PRKCE (Homo sapiens, UniProt Q02156); settings: read-out: %Inhibition by 10 μM SPA70
T36 construct: purchased DiscoverX (Ambit Biosciences) KINOMEscan
How it was run: as §1

BRAF = biological target: T37, BRAF (Homo sapiens, UniProt P15056); settings: read-out: %Inhibition by 10 μM SPA70
T37 construct: purchased DiscoverX (Ambit Biosciences) KINOMEscan
How it was run: as §1

MERTK = biological target: T38, MERTK (Homo sapiens, UniProt Q12866); settings: read-out: %Inhibition by 10 μM SPA70
T38 construct: purchased DiscoverX (Ambit Biosciences) KINOMEscan
How it was run: as §1

ERK8 = biological target: T39, ERK8 (Homo sapiens, UniProt Q8TD08); settings: read-out: %Inhibition by 10 μM SPA70
T39 construct: purchased DiscoverX (Ambit Biosciences) KINOMEscan
How it was run: as §1

CDKL5 = biological target: T40, CDKL5 (Homo sapiens, UniProt O76039); settings: read-out: %Inhibition by 10 μM SPA70
T40 construct: purchased DiscoverX (Ambit Biosciences) KINOMEscan
How it was run: as §1

EPHA2 = biological target: T41, EPHA2 (Homo sapiens, UniProt P29317); settings: read-out: %Inhibition by 10 μM SPA70
T41 construct: purchased DiscoverX (Ambit Biosciences) KINOMEscan
How it was run: as §1

HCK = biological target: T42, HCK (Homo sapiens, UniProt P08631); settings: read-out: %Inhibition by 10 μM SPA70
T42 construct: purchased DiscoverX (Ambit Biosciences) KINOMEscan
How it was run: as §1

T2 sequence (O94768 whole entry): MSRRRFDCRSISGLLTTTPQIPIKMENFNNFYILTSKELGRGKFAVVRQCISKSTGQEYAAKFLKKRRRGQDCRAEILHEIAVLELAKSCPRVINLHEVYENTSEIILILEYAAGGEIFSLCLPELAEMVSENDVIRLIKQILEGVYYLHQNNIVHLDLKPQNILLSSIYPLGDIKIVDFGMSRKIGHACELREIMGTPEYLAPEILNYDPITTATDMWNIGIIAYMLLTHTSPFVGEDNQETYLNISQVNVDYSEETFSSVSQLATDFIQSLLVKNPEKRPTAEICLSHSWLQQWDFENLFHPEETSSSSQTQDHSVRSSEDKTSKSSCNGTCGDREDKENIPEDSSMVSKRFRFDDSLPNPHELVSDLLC
T8 sequence (P28482 whole entry): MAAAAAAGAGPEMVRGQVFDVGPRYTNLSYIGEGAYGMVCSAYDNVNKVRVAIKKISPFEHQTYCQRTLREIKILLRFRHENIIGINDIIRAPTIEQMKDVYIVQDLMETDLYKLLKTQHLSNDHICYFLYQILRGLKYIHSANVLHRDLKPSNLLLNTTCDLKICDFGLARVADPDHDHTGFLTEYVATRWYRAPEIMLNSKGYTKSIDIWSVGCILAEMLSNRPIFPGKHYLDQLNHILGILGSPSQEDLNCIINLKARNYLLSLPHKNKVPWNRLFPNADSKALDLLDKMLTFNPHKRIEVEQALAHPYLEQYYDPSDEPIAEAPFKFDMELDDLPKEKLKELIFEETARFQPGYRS
T9 sequence (P06213 28-1382): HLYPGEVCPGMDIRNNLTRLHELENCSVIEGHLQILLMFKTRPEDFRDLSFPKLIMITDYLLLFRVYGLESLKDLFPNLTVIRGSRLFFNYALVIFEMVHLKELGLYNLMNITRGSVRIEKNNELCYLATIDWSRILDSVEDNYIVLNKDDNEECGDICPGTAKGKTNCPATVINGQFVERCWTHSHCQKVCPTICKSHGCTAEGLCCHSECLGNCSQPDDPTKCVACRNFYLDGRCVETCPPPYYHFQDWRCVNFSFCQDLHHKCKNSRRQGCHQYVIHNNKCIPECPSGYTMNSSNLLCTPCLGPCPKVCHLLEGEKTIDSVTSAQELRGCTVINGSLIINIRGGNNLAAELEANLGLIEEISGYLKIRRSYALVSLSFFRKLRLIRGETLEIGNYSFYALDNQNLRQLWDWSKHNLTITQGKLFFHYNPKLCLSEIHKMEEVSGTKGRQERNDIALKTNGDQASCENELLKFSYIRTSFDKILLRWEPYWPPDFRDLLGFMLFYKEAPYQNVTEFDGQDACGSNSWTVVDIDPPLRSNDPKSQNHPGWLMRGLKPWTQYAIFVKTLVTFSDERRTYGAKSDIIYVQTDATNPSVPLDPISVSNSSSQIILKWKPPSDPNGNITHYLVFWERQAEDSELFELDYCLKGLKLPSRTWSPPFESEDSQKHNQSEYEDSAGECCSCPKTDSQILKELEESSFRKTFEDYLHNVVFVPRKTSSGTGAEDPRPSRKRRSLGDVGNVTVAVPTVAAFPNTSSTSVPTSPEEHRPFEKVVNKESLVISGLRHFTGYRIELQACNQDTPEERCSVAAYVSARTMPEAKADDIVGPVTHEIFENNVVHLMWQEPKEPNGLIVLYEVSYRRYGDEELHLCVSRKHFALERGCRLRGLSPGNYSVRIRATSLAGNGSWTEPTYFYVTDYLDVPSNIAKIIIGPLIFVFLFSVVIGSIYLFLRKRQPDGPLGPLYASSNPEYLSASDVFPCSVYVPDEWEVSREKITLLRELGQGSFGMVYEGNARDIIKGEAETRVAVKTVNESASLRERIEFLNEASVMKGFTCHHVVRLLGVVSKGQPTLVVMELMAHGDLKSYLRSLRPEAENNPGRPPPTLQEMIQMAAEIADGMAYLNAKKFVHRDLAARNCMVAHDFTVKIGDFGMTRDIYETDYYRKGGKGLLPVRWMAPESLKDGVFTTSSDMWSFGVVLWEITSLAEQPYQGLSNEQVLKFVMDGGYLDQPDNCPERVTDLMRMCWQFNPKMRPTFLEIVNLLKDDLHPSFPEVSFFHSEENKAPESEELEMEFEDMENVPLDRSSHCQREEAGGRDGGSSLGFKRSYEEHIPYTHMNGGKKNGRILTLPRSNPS
T32 sequence (Q13546 whole entry): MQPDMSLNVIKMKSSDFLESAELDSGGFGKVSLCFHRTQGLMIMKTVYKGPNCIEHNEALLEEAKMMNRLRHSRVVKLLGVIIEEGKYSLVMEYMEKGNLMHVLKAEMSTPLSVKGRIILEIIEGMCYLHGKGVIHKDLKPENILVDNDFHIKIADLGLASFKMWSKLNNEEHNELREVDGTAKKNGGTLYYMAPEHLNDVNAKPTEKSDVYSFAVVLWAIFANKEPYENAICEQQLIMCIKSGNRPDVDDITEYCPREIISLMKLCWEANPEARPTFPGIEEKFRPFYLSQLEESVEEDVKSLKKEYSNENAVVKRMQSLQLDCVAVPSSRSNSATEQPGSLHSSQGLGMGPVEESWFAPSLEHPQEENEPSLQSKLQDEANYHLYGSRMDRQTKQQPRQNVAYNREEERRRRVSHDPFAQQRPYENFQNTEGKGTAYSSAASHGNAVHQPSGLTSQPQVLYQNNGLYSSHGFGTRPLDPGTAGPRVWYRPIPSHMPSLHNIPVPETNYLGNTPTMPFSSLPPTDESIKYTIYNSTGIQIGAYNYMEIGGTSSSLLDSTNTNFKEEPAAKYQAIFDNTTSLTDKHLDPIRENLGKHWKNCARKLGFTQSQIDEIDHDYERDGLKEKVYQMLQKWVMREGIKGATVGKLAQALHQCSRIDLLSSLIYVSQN
T5 sequence (O75747 whole entry): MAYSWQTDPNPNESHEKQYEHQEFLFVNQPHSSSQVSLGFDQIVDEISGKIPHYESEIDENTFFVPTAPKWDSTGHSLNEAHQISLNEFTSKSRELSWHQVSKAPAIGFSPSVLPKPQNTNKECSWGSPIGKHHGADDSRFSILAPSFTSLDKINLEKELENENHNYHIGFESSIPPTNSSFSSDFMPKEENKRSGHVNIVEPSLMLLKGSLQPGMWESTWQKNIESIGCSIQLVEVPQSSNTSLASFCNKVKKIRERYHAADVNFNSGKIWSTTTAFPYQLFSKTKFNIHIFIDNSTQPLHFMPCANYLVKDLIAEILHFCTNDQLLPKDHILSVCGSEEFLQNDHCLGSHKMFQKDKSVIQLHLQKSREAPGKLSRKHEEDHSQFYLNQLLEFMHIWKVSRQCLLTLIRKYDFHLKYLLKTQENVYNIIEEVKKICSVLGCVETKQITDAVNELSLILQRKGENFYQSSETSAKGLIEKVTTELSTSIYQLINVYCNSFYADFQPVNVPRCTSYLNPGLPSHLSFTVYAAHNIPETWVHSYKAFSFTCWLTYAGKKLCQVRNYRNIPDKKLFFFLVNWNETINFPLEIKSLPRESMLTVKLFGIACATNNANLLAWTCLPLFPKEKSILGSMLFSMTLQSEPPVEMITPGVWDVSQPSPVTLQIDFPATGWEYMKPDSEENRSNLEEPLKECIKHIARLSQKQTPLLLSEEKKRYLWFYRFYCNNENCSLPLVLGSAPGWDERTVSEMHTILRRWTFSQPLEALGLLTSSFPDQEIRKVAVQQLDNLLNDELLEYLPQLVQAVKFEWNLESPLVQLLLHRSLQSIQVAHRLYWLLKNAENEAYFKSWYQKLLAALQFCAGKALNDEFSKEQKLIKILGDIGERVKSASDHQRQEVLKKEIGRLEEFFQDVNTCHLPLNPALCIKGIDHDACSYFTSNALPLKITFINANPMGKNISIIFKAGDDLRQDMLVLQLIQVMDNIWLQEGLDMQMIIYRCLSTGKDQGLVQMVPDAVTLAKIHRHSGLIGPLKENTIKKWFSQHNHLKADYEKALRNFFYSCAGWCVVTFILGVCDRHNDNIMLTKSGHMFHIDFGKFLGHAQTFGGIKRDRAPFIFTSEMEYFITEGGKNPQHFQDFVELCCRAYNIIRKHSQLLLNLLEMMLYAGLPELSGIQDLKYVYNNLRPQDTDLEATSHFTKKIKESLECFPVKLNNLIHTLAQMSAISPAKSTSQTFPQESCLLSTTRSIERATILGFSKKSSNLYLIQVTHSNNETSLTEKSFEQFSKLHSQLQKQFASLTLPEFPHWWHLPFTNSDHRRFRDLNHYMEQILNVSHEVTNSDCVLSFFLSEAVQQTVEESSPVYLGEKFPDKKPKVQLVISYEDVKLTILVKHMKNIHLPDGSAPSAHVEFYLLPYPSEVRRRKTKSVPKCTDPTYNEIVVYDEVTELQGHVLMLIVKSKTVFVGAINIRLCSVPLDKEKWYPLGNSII
T28 sequence (O60285 whole entry): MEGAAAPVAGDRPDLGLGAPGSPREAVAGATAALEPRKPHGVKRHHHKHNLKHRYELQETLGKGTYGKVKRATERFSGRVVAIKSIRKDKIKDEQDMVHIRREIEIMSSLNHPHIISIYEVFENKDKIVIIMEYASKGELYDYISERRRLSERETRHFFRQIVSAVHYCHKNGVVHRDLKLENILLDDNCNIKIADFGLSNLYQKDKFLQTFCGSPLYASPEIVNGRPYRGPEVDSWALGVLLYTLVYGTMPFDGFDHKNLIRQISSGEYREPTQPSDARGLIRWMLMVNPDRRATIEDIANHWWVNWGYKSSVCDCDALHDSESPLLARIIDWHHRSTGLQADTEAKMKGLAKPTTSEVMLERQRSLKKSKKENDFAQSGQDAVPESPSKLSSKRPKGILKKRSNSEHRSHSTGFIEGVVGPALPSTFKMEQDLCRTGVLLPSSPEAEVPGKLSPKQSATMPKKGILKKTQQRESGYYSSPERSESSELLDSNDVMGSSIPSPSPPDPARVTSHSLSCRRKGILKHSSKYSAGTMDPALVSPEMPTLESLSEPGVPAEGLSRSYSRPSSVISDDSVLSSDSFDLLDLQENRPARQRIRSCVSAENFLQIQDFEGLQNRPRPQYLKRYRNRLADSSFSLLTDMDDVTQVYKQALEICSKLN

In the case of `COc1ccc(OC)c(-n2nnc(S(=O)(=O)c3ccc(C(C)(C)C)cc3)c2C)c1` [SPA70], the inhibition at 10 µM (ROCK1) is reported as 3%, the inhibition at 10 µM (DRAK2) is reported as 5% and the inhibition at 10 µM (CDK4-cyclinD3) is reported as 19%. The inhibition at 10 µM (LIMK2) was 2%, the inhibition at 10 µM (PIK3C2G) was 0% and the inhibition at 10 µM (MTOR) was 0%. For the same molecule, the inhibition at 10 µM (PRKG1) was 0%, the inhibition at 10 µM (ERK2) was 0% and the inhibition at 10 µM (INSR) was 0%. The inhibition at 10 µM (TNK2) was 0%, the inhibition at 10 µM (FGFR3) was 0% and the inhibition at 10 µM (CHEK2) was 23%. It also gave an inhibition at 10 µM (SBK1) of 0%, an inhibition at 10 µM (FAK) of 6% and an inhibition at 10 µM (MYLK) of 0%. For the same molecule, the inhibition at 10 µM (TRKB) was 0%, the inhibition at 10 µM (MAP3K15) was 0% and the inhibition at 10 µM (ALK) was 0%. The inhibition at 10 µM (CLK1) was 0%, the inhibition at 10 µM (FRK) was 0% and the inhibition at 10 µM (CAMK1G) was 25%. The inhibition at 10 µM (MEK3) was 0%, the “%Inhibition by 10 μM SPA70” value (MLK3) was 18% and the inhibition at 10 µM (OSR1) was 14%. For the same molecule, the “%Inhibition by 10 μM SPA70” value (MST1) was 0%, the inhibition at 10 µM (MLCK) was 0% and the inhibition at 10 µM (PIK4CB) was 27%. For the same molecule, the “%Inhibition by 10 μM SPA70” value (ARK5) was 41%, the inhibition at 10 µM (MYO3B) was 5% and the “%Inhibition by 10 μM SPA70” value [1] was 0%. The inhibition at 10 µM (PDPK1) was 0%, the inhibition at 10 µM (RIPK1) was 0% and the inhibition at 10 µM (LATS1) was 0%. For the same molecule, the inhibition at 10 µM (TNK1) was 0%, the inhibition at 10 µM (MAP3K3) was 16% and the inhibition at 10 µM (PRKCE) was 0%. It also gave an inhibition at 10 µM (BRAF) of 0%, an inhibition at 10 µM (MERTK) of 0% and an inhibition at 10 µM (ERK8) of 0%. It also gave an inhibition at 10 µM (CDKL5) of 8%, an inhibition at 10 µM (EPHA2) of 0% and an inhibition at 10 µM (HCK) of 9%.
